Measurements reported in paper PMC7591795, “Humulone Modulation of GABAA Receptors and Its Role in Hops Sleep-Promoting Activity” (Frontiers in Neuroscience, 2020).

Tests used:
BALB/cAnNRj mice [1] = assay: Ethanol-induced sleep test; settings: ethanol 3.5 g/kg i.p.; for duration of sleep induced by ethanol: vs control
[2] = biological target: T1, recombinant α6β3δ GABAA receptors (Rattus norvegicus, UniProt P18506+P30191+P63079); assay: [3H]EBOB binding assay, recombinant α6β3δ receptors in HEK293 cell membranes; settings: GABA 3 μM
T1 construct: expressed in transfected cells; host or cells: HEK293 cells, transient CaPO4 transfection, pRK5 plasmids; cell membranes used
Method: (§1) The cells were divided and plated on 150 mm culture dishes for binding assays and 12 mm coverslips in 24-well cell culture plates for electrophysiology 24 h before transfection.
(§2) The cells were transiently transfected with rat cDNAs encoding GABAA receptor subunits (α1, L08490; α6, L08495; β3, X15468; γ2S, L08497; δ, L08496) in pRK5 plasmids under the control of CMV promoter ([Uusi-Oukari et al., 2000]). The plasmids were used in 1:1 and 1:1:1 ratio for transfections containing α1β3γ2S, α6β3, α6β3γ2S, and α6β3δ receptor subtypes. […] (Supplementary Figure S1). For electrophysiology, K4® transfection system (Biontex, München, Germany) was used according to the manufacturer’s protocol to increase expression efficiency and cell viability. […] The medium was changed 24 h after transfection and all experiments were performed 48 h after transfection.
(§3) The protein concentrations of brain membranes were determined with the Bio-Rad Coomassie blue dye-based protein assay kit (Hercules, CA, United States) as per the manufacturer’s protocol. Transfected HEK293 cells were harvested 48 h after transfection using a detaching buffer (10 mM Tris-HCl, 0.15 M NaCl, 2 mM EDTA) and centrifuged at 20,000 g for 10 min at +4 °C. The resulting pellets were suspended in the assay buffer for binding assays.
(§4) In humulone concentration series with recombinant α6β3, α6β3γ2S, and α6β3δ receptors, HEK293 cell membranes were incubated in the same above conditions for 120 min with [^3H]EBOB (1 nM) and different concentrations of humulone (30 nM–30 μM) in the presence or absence of ethanol (30 mM). […] Picrotoxin (100 μM) was used to determine the non-specific binding in all assays.
(§5) Membrane samples were filtered through Whatman GF/B glass fiber filters (Whatman International Ltd., Maidstone, United Kingdom) using a Brandel Cell Harvester (model M-24, Gaithersburg, MD, United States). The filters were rinsed three times with 5 mL of ice-cold 10 mM Tris-HCl, pH 7.4 buffer. Air-dried filters were immersed in 3 mL of Hidex AquaLight Beta scintillation liquid and radioactivity was determined in Hidex 600 SL liquid scintillation counter (Hidex, Turku, Finland).

[3] = biological target: T2, recombinant α6β3γ2 GABAA receptors (Rattus norvegicus, UniProt P18508+P30191+P63079); assay: [3H]EBOB binding assay, recombinant α6β3γ2 receptors in HEK293 cell membranes; settings: GABA 3 μM
T2 construct: expressed in transfected cells; host or cells: HEK293 cells, transient CaPO4 transfection, pRK5 plasmids; cell membranes used
Method: as §1, §2, §3, §4, §5

BALB/cAnNRj mice [4] = assay: Open field test (spontaneous locomotor activity); type: in vivo
Method: Each mouse was then placed individually into the center of a brightly illuminated white Plexiglass arena (50 × 50 × 38 cm) and recorded continuously for 15 min with Ethovision version 13 tracking system (Noldus, Wageningen, The Netherlands). The parameters of locomotor activity such as distance and velocity were quantified and analyzed for the whole and subsections of the arena. All arena surfaces were thoroughly cleaned with 70% ethanol and dried between each tested subject.

[5] = biological target: T3, recombinant α1β3γ2 GABAA receptors (Rattus norvegicus, UniProt P18508+P62813+P63079); assay: Whole-cell patch-clamp of GABA-induced currents in transfected HEK293 cells; type: cell-based; settings: humulone 10 μM, GABA 1 μM, 1 min application, −60 mV, n = 8 cells
T3 construct: expressed in transfected cells; host or cells: HEK293 cells, transient transfection (K4 transfection system), pRK5 plasmids; EGFP co-transfected from a separate pWPI plasmid
Method: Human embryonic kidney (HEK) 293 cells (Sigma- Aldrich, St Louis, MO, United States) were maintained in Dulbecco’s modified Eagle’s medium supplemented with 10% fetal bovine serum (Gibco, Gaithersburg, MD; United States), 50 U/mL penicillin and 50 μg/mL streptomycin (Sigma-Aldrich, St Louis, MO, United States) under standard growth conditions at 37°C, 95% humidity and 5% CO2. The cells were divided and plated on 150 mm culture dishes for binding assays and 12 mm coverslips in 24-well cell culture plates for electrophysiology 24 h before transfection.
The cells were transiently transfected with rat cDNAs encoding GABAA receptor subunits (α1, L08490; α6, L08495; β3, X15468; γ2S, L08497; δ, L08496) in pRK5 plasmids under the control of CMV promoter ([Uusi-Oukari et al., 2000]). The plasmids were used in 1:1 and 1:1:1 ratio for transfections containing α1β3γ2S, α6β3, α6β3γ2S, and α6β3δ receptor subtypes. For radioligand binding, CaPO4 precipitation method was used essentially as described earlier ([Lüddens and Korpi, 1997]). […]
The cells were continuously perfused with external HEK-Krebs solution containing (in mM): 140 NaCl, 4.7 KCl, 1.2 MgCl2, 2.52 CaCl2, 11 glucose, and 5 HEPES, pH 7.4 adjusted with […]. […] The external solution and drug solutions were driven by gravity at the flow rate of 5 mL/min and the current responses were recorded at room temperature (20–22°C).

[6] = humulone 10 mg/kg i.p. vs control
[7] = humulone 20 mg/kg i.p., 45 min after administration, 15 min observation, vs vehicle, p < 0.01

T1 sequence (P30191 20-453): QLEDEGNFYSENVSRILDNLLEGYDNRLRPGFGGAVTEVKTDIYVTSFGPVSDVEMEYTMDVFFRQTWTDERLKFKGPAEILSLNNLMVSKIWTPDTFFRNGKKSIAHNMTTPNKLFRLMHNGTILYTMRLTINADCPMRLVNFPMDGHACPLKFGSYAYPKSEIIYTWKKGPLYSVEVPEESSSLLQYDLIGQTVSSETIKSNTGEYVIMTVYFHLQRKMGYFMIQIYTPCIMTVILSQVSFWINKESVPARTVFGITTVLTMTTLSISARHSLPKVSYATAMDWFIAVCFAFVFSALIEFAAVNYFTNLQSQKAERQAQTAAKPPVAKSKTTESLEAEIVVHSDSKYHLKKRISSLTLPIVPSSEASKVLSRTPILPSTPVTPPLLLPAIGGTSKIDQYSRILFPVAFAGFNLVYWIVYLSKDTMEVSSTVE
T1 sequence (P63079 26-473): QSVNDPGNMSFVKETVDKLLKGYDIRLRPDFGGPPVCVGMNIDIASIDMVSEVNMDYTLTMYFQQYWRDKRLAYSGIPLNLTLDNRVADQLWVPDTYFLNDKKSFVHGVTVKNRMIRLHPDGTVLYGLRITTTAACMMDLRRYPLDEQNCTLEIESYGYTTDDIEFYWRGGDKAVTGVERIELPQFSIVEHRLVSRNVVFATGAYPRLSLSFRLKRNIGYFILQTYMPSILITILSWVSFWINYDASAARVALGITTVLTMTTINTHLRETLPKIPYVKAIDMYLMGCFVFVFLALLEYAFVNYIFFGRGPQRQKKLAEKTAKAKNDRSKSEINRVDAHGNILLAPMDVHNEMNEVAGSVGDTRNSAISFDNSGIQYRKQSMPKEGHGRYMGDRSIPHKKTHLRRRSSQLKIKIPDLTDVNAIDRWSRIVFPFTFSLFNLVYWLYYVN
T1 sequence (P18506 25-449): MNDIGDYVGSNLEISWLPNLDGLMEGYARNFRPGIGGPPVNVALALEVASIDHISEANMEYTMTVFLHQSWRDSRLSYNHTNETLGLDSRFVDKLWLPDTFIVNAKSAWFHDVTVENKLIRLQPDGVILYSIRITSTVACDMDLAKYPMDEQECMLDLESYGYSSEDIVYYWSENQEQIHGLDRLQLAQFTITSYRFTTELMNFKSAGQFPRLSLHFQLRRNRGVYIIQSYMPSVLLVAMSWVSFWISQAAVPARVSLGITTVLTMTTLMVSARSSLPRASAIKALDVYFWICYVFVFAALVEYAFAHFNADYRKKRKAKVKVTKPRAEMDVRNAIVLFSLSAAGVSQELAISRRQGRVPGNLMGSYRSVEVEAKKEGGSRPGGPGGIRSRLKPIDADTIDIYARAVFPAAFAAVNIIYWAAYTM
T2 sequence (P30191 20-453): as the sequence (P30191 20-453) above
T2 sequence (P63079 26-473): as the sequence (P63079 26-473) above
T2 sequence (P18508 39-466): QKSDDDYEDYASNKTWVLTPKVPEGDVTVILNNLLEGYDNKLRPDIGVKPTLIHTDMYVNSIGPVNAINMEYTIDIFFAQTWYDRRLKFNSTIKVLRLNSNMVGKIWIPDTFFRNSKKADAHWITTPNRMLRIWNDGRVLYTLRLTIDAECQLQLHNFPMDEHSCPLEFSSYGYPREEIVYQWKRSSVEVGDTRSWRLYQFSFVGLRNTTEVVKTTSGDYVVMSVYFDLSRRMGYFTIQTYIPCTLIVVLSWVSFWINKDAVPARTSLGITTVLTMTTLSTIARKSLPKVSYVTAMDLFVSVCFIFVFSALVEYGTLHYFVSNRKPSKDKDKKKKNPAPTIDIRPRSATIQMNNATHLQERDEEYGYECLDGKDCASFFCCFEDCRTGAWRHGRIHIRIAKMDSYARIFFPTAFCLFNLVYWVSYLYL
T3 sequence (P62813 28-455): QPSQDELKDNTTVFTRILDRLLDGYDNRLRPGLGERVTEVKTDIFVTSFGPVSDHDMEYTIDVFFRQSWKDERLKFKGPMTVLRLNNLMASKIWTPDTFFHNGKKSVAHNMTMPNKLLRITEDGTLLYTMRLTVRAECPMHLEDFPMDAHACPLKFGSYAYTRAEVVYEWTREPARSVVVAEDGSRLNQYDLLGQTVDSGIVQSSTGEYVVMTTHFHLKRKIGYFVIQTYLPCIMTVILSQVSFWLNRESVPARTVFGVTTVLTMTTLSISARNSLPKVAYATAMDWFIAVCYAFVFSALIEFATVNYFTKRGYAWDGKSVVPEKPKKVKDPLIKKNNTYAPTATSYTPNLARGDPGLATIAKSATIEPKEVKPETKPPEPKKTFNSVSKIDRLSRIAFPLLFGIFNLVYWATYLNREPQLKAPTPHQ
T3 sequence (P63079 26-473): as the sequence (P63079 26-473) above
T3 sequence (P18508 39-466): as the sequence (P18508 39-466) above

For `CC(C)=CCC1=C(O)[C@@](O)(CC=C(C)C)C(=O)C(C(=O)CC(C)C)=C1O` [humulone], the “duration of sleep induced by ethanol” value (BALB/cAnNRj mice [1]; humulone 10 mg/kg i.p., p < 0.05) was “significantly increased”, the “duration of sleep induced by ethanol” value (BALB/cAnNRj mice [1]; humulone 20 mg/kg i.p., p < 0.001) was “significantly increased” and the “onset of sleep induced by ethanol” value (BALB/cAnNRj mice [1]; humulone 10 or 20 mg/kg i.p.) was “no effect”. For the same compound, the “concentration at which potentiation of GABA-induced [3H]EBOB displacement was evident” value ([2]; α6β3δ) was ≥ 1 µM, the “increase in potency in α6β3δ compared to α6β3 receptors” value ([2]; ratio of IC50 values) was 6.7 fold and the “increase in potency in α6β3δ compared to α6β3γ2 receptors” value ([2]; ratio of IC50 values) was 5.8 fold. The “concentration at which potentiation of GABA-induced [3H]EBOB displacement was observed” value [3] was ≥ 10 µM, the “effect on [3H]EBOB displacement induced by GABA” value ([3]; humulone 1 μM) was “absent” and the “significant difference in average velocity in open field” value (BALB/cAnNRj mice [4]; [6]) was “not observed”. For the same compound, the “significant difference in total distance traveled in open field” value (BALB/cAnNRj mice [4]; [6]) was “not observed”, the “average velocity in open field” value (BALB/cAnNRj mice [4]; [7]) was “lower” and the “total distance traveled in open field” value (BALB/cAnNRj mice [4]; [7]) was “shorter”. The “time spent in periphery and center in open field” value (BALB/cAnNRj mice [4]; humulone 10 and 20 mg/kg i.p. vs vehicle, Supplementary Figure S3) was “no differences” and the “potentiation of GABA-induced peak current amplitude, normalized to 1 μM GABA alone” value [5] was 158 ± 41%.
